pKi: −log10 of the molar value. Where two headings read alike, the source gives them in different places.
How the values were obtained:
S1R = target: T1, S1R (Cavia porcellus, UniProt Q60492); test: S1R radiolabeled binding assay, guinea pig whole brain, [3H]-pentazocine
T1 construct: performed using Guinea pig whole brain according to the protocol previously reported; from tissue; host or cells: guinea pig whole brain membrane preparations
Procedure: Following 1 h incubation at 25° C., the binding assay was terminated by addition of cold buffer. The mixture was then filtered through Whatman GF/B filters and washed with cold buffer. Radioactivity was identified using the liquid scintillation counter.
Receptor binding data were analyzed by nonlinear regression of saturation and competition curves using the GraphPad Prism 7.0 software (GraphPad Software, La Jolla, Calif.).
(§1) Radiolabeled binding assays were conducted using two different species.

human S1R = target: T2, human S1R (Homo sapiens, UniProt Q99720); test: Human S1R radiolabeled binding assay, human jurkat cell membranes, [3H]-pentazocine; settings: human membranes (Compounds 10-76)
T2 construct: experimentally determined in human jurkat cell membranes using 15.0 nM; endogenous in cells; host or cells: human Jurkat cell membranes
T2 sequence (Q99720 whole entry): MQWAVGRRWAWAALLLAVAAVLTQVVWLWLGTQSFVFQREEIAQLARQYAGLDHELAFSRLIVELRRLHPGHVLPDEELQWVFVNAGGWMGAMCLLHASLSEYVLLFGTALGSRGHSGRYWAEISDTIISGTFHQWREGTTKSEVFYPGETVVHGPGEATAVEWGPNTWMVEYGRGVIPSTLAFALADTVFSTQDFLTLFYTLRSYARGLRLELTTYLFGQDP
Procedure: The binding process was terminated by addition of cold buffer. Then, the mixture was filtered and washed with cold buffer. Radioactivity was identified using the TopCount NTX liquid scintillation counter (PerkinElmer, Waltham, Mass.).
as §1

human S2R = target: T3, human S2R (Homo sapiens, UniProt Q5BJF2); test: Human S2R radiolabeled binding assay, Jurkat Clone E6-1 cell membranes, [3H] DTG; settings: for pKi: human membranes (Compounds 10-76); for S2R % at 1 μM: human membranes
T3 construct: performed using Jurkat cell line Clone E6-1 cells with 0.025 μM; endogenous in cells; host or cells: Jurkat Clone E6-1 cell membranes
T3 sequence (Q5BJF2 whole entry): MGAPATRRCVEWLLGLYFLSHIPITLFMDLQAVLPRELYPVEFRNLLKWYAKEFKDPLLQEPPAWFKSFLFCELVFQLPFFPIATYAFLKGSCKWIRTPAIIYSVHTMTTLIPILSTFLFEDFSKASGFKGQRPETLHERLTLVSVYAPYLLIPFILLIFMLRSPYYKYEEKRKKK
Procedure: The radiolabeled binding assay of the human S1R and S2R were performed using human jurkat cell membranes according to the protocol previously reported (Ganapathy, et al., 1999, J. Pharmacol. Exp. Ther. 289:251-60).
DTG as radioligand. […] The cells were incubated in RPMI 1640 Medium with 10% FBS, 100 U/ml penicillin and […] streptomycin. After incubation, the cells were suspended in 5 mM potassium phosphate buffer (pH=7.6). The membrane protein concentration was controlled at 5 mg/mL. The collected membrane protein was incubated with ligands in potassium phosphate buffer for 1 hour at room temperature and terminated by adding ice-cold buffer. Then the mixture is filtered with 0.7 μm syringe filter and washed three times. The radioactivity is determined by liquid scintillation spectrometry.
Radiolabeled binding assays were conducted using two different species. Compounds 1-9 were assayed using guinea pig brain membranes for the binding assays. Compounds 10-76 were assayed using human brain membranes for the binding assays.

[1] = guinea pig brain membranes (Compounds 1-9), read-out: S1R Ki

T1 sequence (Q60492 whole entry): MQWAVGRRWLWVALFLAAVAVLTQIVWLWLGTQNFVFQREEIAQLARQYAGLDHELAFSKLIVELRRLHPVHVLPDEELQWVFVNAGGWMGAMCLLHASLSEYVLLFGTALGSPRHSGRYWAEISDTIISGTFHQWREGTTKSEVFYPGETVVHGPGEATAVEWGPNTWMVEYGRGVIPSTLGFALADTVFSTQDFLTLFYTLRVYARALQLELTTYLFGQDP

Row | pKi (human S1R) | pKi (human S2R) | SMILES | other results
1 | – | – | Cn1nc(CN2CCCCC2)nc1-c1ccc(C(C)(C)C)cc1 [Compound 1, 1-((5-(4-(tert-butyl)phenyl)-1-methyl-1H-1,2,4-triazol-3-yl)methyl)piperidine] | pKi (S1R; [1]): 8.43
2 | – | – | Cn1nc(CN2CCOCC2)nc1-c1ccc(C(C)(C)C)cc1 [Compound 2, 4-((5-(4-(tert-butyl)phenyl)-1-methyl-1H-1,2,4-triazol-3-yl)methyl)morpholine] | pKi (S1R; [1]): 7.25
3 | – | – | CN1CCN(Cc2nc(-c3ccc(C(C)(C)C)cc3)n(C)n2)CC1 [Compound 3, 1-((5-(4-(tert-butyl)phenyl)-1-methyl-1H-1,2,4-triazol-3-yl)methyl)-4-methylpiperazine] | pKi (S1R; [1]): 6.88
4 | – | – | Cn1nc(CN2CCN(c3ccccc3)CC2)nc1-c1ccc(C(C)(C)C)cc1 [Compound 4, 1-((5-(4-(tert-butyl)phenyl)-1-methyl-1H-1,2,4-triazol-3-yl)methyl)-4-phenylpiperazine] | pKi (S1R): 7.84
5 | – | – | Cn1nc(CN2CCN(CCc3ccccc3)CC2)nc1-c1ccc(C(C)(C)C)cc1 [Compound 5, 1-((5-(4-(tert-butyl)phenyl)-1-methyl-1H-1,2,4-triazol-3-yl)methyl)-4-phenethylpiperazine] | pKi (S1R): 7.99
6 | – | – | Cn1nc(CN2CCN(Cc3ccccc3)CC2)nc1-c1ccc(C(C)(C)C)cc1 [Compound 6, 1-benzyl-4-((5-(4-(tert-butyl)phenyl)-1-methyl-1H-1,2,4-triazol-3-yl)methyl)piperazine] | pKi (S1R; [1]): 8.26
7 | – | – | Cn1nc(CN2CCC(Cc3ccccc3)CC2)nc1-c1ccc(C(C)(C)C)cc1 [Compound 7, 4-benzyl-1-((5-(4-(tert-butyl)phenyl)-1-methyl-1H-1,2,4-triazol-3-yl)methyl)piperidine] | pKi (S1R; [1]): 8.69
8 | – | – | CN(Cc1nc(-c2ccc(C(C)(C)C)cc2)n(C)n1)CC1CC1 [Compound 9, 1-(5-(4-(tert-butyl)phenyl)-1-methyl-1H-1,2,4-triazol-3-yl)-N-(cyclopropylmethyl)-N-methylmethanamine] | pKi (S1R; [1]): 9.21
9 | 8.00 | < 6.00 | Cn1nc(CN2CCCC2)nc1-c1ccc(C2(C(F)(F)F)CC2)cc1 [Compound 10, 1-methyl-3-(pyrrolidin-1-ylmethyl)-5-(4-(1-(trifluoromethyl)cyclopropyl)phenyl)-1H-1,2,4-triazole] | –
10 | 7.66 | < 6.00 | Cn1nc(CN2CCCC2)nc1-c1ccc(Cl)c(Cl)c1 [Compound 11, 5-(3,4-dichlorophenyl)-1-methyl-3-(pyrrolidin-1-ylmethyl)-1H-1,2,4-triazole] | –
11 | 7.68 | < 6.00 | Cc1cc(-c2nc(CN3CCCC3)nn2C)ccc1C(F)(F)F [Compound 13, 1-methyl-5-(3-methyl-4-(trifluoromethyl)phenyl)-3-(pyrrolidin-1-ylmethyl)-1H-1,2,4-triazole] | –
12 | 7.45 | < 6.00 | Cn1nc(CN2CCCC2)nc1-c1ccc2c(c1)CCCC2 [Compound 15, 1-methyl-3-(pyrrolidin-1-ylmethyl)-5-(5,6,7,8-tetrahydronaphthalen-2-yl)-1H-1,2,4-triazole] | –
13 | 7.49 | < 6.00 | Cn1nc(CN2CCCC2)nc1-c1cccc(C2(C(F)(F)F)CC2)c1 [Compound 17, 1-methyl-3-(pyrrolidin-1-ylmethyl)-5-(3-(1-(trifluoromethyl)cyclopropyl)phenyl)-1H-1,2,4-triazole] | –
14 | 7.43 | < 6.00 | Cn1nc(CN2CCCC2)nc1-c1ccc2cc(Cl)sc2c1 [Compound 25, 5-(2-chlorobenzo[b]thiophen-6-yl)-1-methyl-3-(pyrrolidin-1-ylmethyl)-1H-1,2,4-triazole] | –
15 | 9.05 | 6.72 | Cn1nc(CN2CCC(C)(C)C2)nc1-c1ccc(C(C)(C)C)cc1 [Compound 26, 5-(4-(tert-butyl)phenyl)-3-((3,3-dimethylpyrrolidin-1-yl)methyl)-1-methyl-1H-1,2,4-triazole] | –
16 | 8.32 | 5.77 | CCn1nc(CN2CCCC2)nc1-c1ccc(C(C)(C)C)cc1 [Compound 30, 5-(4-(tert-butyl)phenyl)-1-ethyl-3-(pyrrolidin-1-ylmethyl)-1H-1,2,4-triazole] | –
17 | 7.86 | 6.12 | CC(C)(C)c1ccc(-c2nc(CN3CCCC3)nn2C2CC2)cc1 [Compound 32, 5-(4-(tert-butyl)phenyl)-1-cyclopropyl-3-(pyrrolidin-1-ylmethyl)-1H-1,2,4-triazole] | –
18 | 9.28 | – | CCn1nc(CN2CCC3(CCCC3)C2)nc1-c1ccc(C(C)(C)C)cc1 [Compound 65, 2-((5-(4-(tert-butyl)phenyl)-1-ethyl-1H-1,2,4-triazol-3-yl)methyl)-2-azaspiro[4.4]nonane] | S2R % at 1 μM (human S2R): 96% at 1 μM
19 | 9.24 | – | CCn1nc(CN2CC3CCCC3C2)nc1-c1ccc(C(C)(C)C)cc1 (stereo not shown) [Compound 66, 2-((5-(4-(tert-butyl)pheny)-1-ethyl-1H-1,2,4-triazol-3-yl)methyl)octahydrocyclopenta[c]pyrrole] | S2R % at 1 μM (human S2R): 73% at 1 μM
20 | 9.25 | – | CC(C)(C)c1ccc(-c2nc(CN3CCC4(CCCC4)C3)nn2C2CC2)cc1 [Compound 75, 2-((5-(4-(tert-butyl)phenyl)-1-cyclopropyl-1H-1,2,4-triazol-3-yl)methyl)-2-azaspiro[4.4]nonane] | S2R % at 1 μM (human S2R): 105% at 1 μM

Row | SMILES | pKi (human S1R) | pKi (human S2R) | other results
21 | CC(C)n1nc(CN2CCCC2)nc1-c1ccc(C(C)(C)C)cc1 [Compound 31, 5-(4-(tert-butyl)phenyl)-1-isopropyl-3-(pyrrolidin-1-ylmethyl)-1H-1,2,4-triazole] | 8.67 | 5.84 | –

— patent publication US20220363649A1, “ORGANIC COMPOUNDS” (Rutgers, The State University of New Jersey, priority 2018, published 2022)
